Data on two molecules can be found in patent US11723897B2, “Fatty acids as anti-inflammatory agents” (University of Pittsburgh—Of the Commonwealth System of …, priority 2009, dated 2023).

What is called EC50 is the concentration at which the effect is half-maximal.

One experiment concerns the target T1, PPARγ (Homo sapiens, UniProt P37231).
T1 sequence (P37231 1-505): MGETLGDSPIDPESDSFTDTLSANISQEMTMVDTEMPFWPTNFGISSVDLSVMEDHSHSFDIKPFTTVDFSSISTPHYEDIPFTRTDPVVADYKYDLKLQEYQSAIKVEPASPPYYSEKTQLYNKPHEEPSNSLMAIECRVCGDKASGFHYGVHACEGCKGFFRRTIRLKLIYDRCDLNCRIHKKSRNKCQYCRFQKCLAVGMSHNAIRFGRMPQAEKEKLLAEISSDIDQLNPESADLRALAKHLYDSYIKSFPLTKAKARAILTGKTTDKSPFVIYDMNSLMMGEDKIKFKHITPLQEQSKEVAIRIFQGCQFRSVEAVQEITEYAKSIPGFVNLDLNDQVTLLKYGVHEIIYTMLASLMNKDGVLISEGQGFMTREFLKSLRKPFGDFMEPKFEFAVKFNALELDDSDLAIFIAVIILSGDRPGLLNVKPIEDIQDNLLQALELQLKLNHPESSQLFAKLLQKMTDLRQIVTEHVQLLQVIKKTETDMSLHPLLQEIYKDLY
Kind of experiment: PPARγ beta-lactamase reporter assay. It is filed as cell-based. The note with it: concentrations 0.5-10,000 nM; read-out: PPARγ activation EC50. The method, then: FIG. 11a-11e illustrates modulation of anti-oxidant and inflammatory responses by 17-oxoDHA and 17-oxoDPA. RAW264.7 cells were treated with increasing concentration of 17-oxoDHA and 17-oxoDPA. (a) Cells were harvested 1 h after treatment and Nrf2 levels were quantified in nuclear extracts. (b) Cells were harvested 18 h after treatment and HO-1 and Nqo1 (upper band) levels were measured by western blot. (c, d) RAW264.7 cells were treated with increasing concentration of 17-oxoDHA and 17-oxoDPA for 6 h and Kdo2+IFNγ were added. Samples were collected at 12 h. IL-6, MCP-1 and IL-10 levels were measured in the cell media by Quantikine ELISA Kit (R&D Systems) and normalized by the total protein content (c); Nitrite levels were measured in the cell media and normalized by the total protein content and iNOS and Cox-2 levels were measured in total cell lysates (d); (e) PPARγ beta-lactamase reporter assays were performed for Rosiglitazone, 17-OxoDPA, 17-OxoDHA, 15d-PGJ2, 17-hydroxyDHA, DPA, and DHA with concentrations ranging from 0.5-10,000 nM.
The observation that oxo-fatty acids, such as 15d-PGJ2^30, 5-oxoEPA, 6-oxoOTE, and the synthetic 4-oxoDHA^31, covalently bind and activate the peroxisome proliferator-activated receptor γ (PPARγ), prompted the present inventors to test the ability of 17-oxoDPA, and 17-oxoDHA to activate PPARγ. […]
Background: In a reporter assay the amount or activity of a reporter protein is the signal.

Experiment [1] deals with EFAD formation in RAW264.7 cells. Nature of the experiment: Inhibitor study: EFAD formation in RAW264.7 cells activated with Kdo2 and IFNγ. It is filed as cell-based, murine.
The target of the next experiment is T2, Ovine placental COX-2 (Ovis aries, UniProt P79208).
T2 construct: Ovine placental COX-2 (Cayman 60120) was also from Cayman Chemicals; purchased Cayman Chemicals 60120; host or cells: ovine placenta (tissue-derived, from the word 'placental')
T2 sequence (P79208 17-603): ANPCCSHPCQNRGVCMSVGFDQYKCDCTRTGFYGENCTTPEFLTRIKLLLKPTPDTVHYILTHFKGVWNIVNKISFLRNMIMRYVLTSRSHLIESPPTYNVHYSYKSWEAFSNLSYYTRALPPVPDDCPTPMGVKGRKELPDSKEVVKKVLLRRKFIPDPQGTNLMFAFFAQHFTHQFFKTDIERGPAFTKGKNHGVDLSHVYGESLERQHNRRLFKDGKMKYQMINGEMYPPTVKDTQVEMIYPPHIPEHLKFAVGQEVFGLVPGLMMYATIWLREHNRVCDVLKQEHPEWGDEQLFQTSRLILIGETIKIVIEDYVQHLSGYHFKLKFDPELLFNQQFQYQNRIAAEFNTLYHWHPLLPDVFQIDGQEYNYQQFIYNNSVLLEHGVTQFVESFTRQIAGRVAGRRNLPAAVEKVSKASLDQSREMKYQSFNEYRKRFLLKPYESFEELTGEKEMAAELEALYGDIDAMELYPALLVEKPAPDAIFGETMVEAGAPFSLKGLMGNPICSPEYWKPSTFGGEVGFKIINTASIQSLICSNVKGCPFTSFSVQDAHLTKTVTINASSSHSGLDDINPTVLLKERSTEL
Nature of the experiment: In vitro COX-2 reaction with DPA ± ASA. It counts as biochemical. Conditions: purified ovine COX-2 + DPA 10 μM, 2 mM ASA.

For experiment [2], the system named is bone marrow-derived macrophage (BMDM) cells. Kind of experiment: EFAD formation in activated bone marrow-derived macrophages ± ASA. It is filed as cell-based, C57BL/6 murine. The note with it: activated with Kdo2 and IFNγ, treated with ASA.
For another experiment, the system named is RAW264.7 cells. Nature of the experiment: GS-EFAD adducts in activated RAW264.7 cells. Conditions: activated RAW264.7 cells + ASA. It is filed as cell-based, murine.
Where [3] appears, read: RAW264.7 + Kdo2 + IFNγ, 20 h, ↓ decrease, ↑ increase, NE (not defined in patent).

Take `CCCCCC=CC=C1C(=O)C=C[C@@H]1CC=CCCCC(=O)O` [15d-PGJ2, 15-deoxy-Δ (12,14)-prostaglandin J2]: the EC50 on PPARγ is about 25 nM.
For the molecule `CC(=O)Oc1ccccc1C(=O)O` [ASA, acetyl salicylic acid], the “Increase of EFAD formation” value in experiment [1] (ASA 200 μM, all EFADs except EFAD-4 and EFAD-6) is listed as “about 2.5 fold”. In experiment [1] (setting [3]), the “Effect of inhibitor on EFAD-1 formation” value is on record as “↑”, the “Effect of inhibitor on EFAD-2 formation” value is listed as “↑”, the “Effect of inhibitor on EFAD-3 formation” value was “↑” and the “Effect of inhibitor on EFAD-4 formation” value is “↓”. Besides, in experiment [1] (setting [3]), the “Effect of inhibitor on EFAD-5 formation” value is given as “↑” and the “Effect of inhibitor on EFAD-6 formation” value was “↓”. Besides, the “Formation of OH-DPA by COX-2” value on Ovine placental COX-2 is “increased the rate and extent of formation”. The “Extent of EFAD formation in BMDM” value in experiment [2] is on record as “increased about two to three fold”. Moreover, in the experiment with RAW264.7 cells, the “Formation of GS-adducts” value was “enhanced the formation of GS-adducts”.
